Results as given in article PMC7271024, “N1-Benzofused Modification of Fluoroquinolones Reduces Activity Against Gram-Negative Bacteria” (ACS Omega, 2020).
In brackets after ≈: the same amount, converted by molar mass.

What was measured:
[1] = tested on: P. aeruginosa PAO1; assay: MIC, microdilution broth method; assay type: cell-based, Pseudomonas aeruginosa; conditions: for MIC: Pseudomonas aeruginosa; for potentiation of MIC by PMBN: MIC –PMBN vs +PMBN
[2] = biological target: T1, E. coli DNA gyrase (Escherichia coli, UniProt P0AES4+P0AES6); assay: Cell-free gyrase supercoiling inhibition assay; assay type: biochemical; conditions: purified enzyme, cell-free supercoiling kit
T1 construct: purchased Inspiralis (Norwich, UK) K0001

[3] = tested on: A. baumannii AYE; assay: MIC, microdilution broth method; assay type: cell-based, Acinetobacter baumannii; conditions: for MIC: Acinetobacter baumannii
Protocol: (§1) The antibacterial activities of the synthesized fluoroquinolones were evaluated against a panel of Gram-negative pathogens including K. pneumoniae (NCTC 13368, M6), Acinetobacter baumannii (AYE, ATCC 17978), Pseudomonas aeruginosa (PAO1, NCTC 13437), and Escherichia coli (NCTC 12923, LEC001). The ability of molecules to permeate the Gram-negative outer membrane was investigated by adding membrane permeabilizer polymyxin B nonapeptide (PMBN) at sub-inhibitory concentrations (Table 2). Phenylalanine–arginine β-naphthylamide (PAβN) was used to investigate efflux of compounds by resistance–nodulation–division (RND)-family efflux pumps (Table 3).
(§2) Minimal inhibitory concentrations (MICs) were determined using the microdilution broth method. Briefly, compounds were added to the first two columns of a 96-well plate and diluted two-fold down the plate in tryptic soy broth. Overnight cultures of bacteria were then adjusted to a concentration of 1 × 10^6 CFU/mL and added to each well for a final concentration of 5 × 10^5 CFU/mL.

[4] = tested on: P. aeruginosa NCTC 13437; assay: MIC, microdilution broth method; assay type: cell-based, Pseudomonas aeruginosa; conditions: for MIC: Pseudomonas aeruginosa; for potentiation of MIC by PMBN: MIC –PMBN vs +PMBN
Protocol: as §1, §2

[5] = tested on: E. coli NCTC 12923; assay: MIC, microdilution broth method; assay type: cell-based, Escherichia coli; conditions: for MIC: Escherichia coli
[6] = biological target: T2, P. aeruginosa DNA gyrase (Pseudomonas aeruginosa, UniProt P48372+Q9I7C2); assay: Cell-free gyrase supercoiling inhibition assay; assay type: biochemical; conditions: purified enzyme, cell-free supercoiling kit
T2 construct: purchased Inspiralis (Norwich, UK) PAS001

[7] = tested on: A. baumannii ATCC 17978; assay: MIC, microdilution broth method; assay type: cell-based, Acinetobacter baumannii; conditions: for MIC: Acinetobacter baumannii; for potentiation of MIC by PMBN: MIC –PMBN vs +PMBN
[8] = tested on: K. pneumoniae NCTC 13368; assay: MIC, microdilution broth method; assay type: cell-based, Klebsiella pneumoniae; conditions: for MIC: Klebsiella pneumoniae; for potentiation of MIC by PMBN: MIC –PMBN vs +PMBN
Protocol: as §1, §2

[9] = Solubility as observed in the MIC and enzyme experiments; assay type: physicochemical; conditions: for solubility profile: evidenced when undertaking the MIC experiments
Protocol: In vitro activity assays using purified S. aureus, E. coli and P. aeruginosa DNA gyrase, and S. aureus topoisomerase IV enzymes were performed in order to evaluate whether the gains in inhibitory activity predicted for the benzofused compounds were accurate. The benzothiophene-containing 6e was selected as a representative compound for the purposes of this experiment. […].
A general correlation between N1 substituent hydrophobicity and activity is observed; […].

[10] = tested on: panel of Gram-negative pathogens; assay: MIC panel, statements across strains; assay type: cell-based, K. pneumoniae, A. baumannii, P. aeruginosa, E. coli; conditions: versus ciprofloxacin
Protocol: as §1, §2

[11] = tested on: K. pneumoniae M6; assay: MIC, microdilution broth method; assay type: cell-based, Klebsiella pneumoniae; conditions: for MIC: Klebsiella pneumoniae; for potentiation of MIC by PMBN: MIC –PMBN vs +PMBN
[12] = tested on: E. coli LEC001; assay: MIC, microdilution broth method; assay type: cell-based, Escherichia coli; conditions: for MIC: Escherichia coli
Protocol: as §1, §2

[13] = PAO1, +PMBN (30 μg/mL), ciprofloxacin-sensitive strain (S)
[14] = PAO1, –PMBN, ciprofloxacin-sensitive strain (S)
[15] = +PMBN (30 μg/mL), ciprofloxacin-resistant strain (R)
[16] = –PMBN, ciprofloxacin-resistant strain (R)
[17] = PAβN, text names A. baumannii only
[18] = NCTC13437, +PMBN (30 μg/mL), ciprofloxacin-resistant strain (R)
[19] = NCTC13437, –PMBN, ciprofloxacin-resistant strain (R)
[20] = NCTC12923, +PMBN (30 μg/mL), ciprofloxacin-sensitive strain (S)
[21] = NCTC12923, –PMBN, ciprofloxacin-sensitive strain (S)
[22] = ATCC17978, +PMBN (30 μg/mL), ciprofloxacin-sensitive strain (S)
[23] = ATCC17978, –PMBN, ciprofloxacin-sensitive strain (S)
[24] = NCTC13368, +PMBN (30 μg/mL), ciprofloxacin-resistant strain (R)
[25] = NCTC13368, –PMBN, ciprofloxacin-resistant strain (R)
[26] = RND-family efflux inhibitor PAβN
[27] = M6, +PMBN (30 μg/mL), ciprofloxacin-sensitive strain (S)
[28] = M6, –PMBN, ciprofloxacin-sensitive strain (S)
[29] = LEC001, +PMBN (30 μg/mL), ciprofloxacin-resistant strain (R)
[30] = LEC001, –PMBN, ciprofloxacin-resistant strain (R)

T1 sequence (P0AES4 whole entry, one chain of several): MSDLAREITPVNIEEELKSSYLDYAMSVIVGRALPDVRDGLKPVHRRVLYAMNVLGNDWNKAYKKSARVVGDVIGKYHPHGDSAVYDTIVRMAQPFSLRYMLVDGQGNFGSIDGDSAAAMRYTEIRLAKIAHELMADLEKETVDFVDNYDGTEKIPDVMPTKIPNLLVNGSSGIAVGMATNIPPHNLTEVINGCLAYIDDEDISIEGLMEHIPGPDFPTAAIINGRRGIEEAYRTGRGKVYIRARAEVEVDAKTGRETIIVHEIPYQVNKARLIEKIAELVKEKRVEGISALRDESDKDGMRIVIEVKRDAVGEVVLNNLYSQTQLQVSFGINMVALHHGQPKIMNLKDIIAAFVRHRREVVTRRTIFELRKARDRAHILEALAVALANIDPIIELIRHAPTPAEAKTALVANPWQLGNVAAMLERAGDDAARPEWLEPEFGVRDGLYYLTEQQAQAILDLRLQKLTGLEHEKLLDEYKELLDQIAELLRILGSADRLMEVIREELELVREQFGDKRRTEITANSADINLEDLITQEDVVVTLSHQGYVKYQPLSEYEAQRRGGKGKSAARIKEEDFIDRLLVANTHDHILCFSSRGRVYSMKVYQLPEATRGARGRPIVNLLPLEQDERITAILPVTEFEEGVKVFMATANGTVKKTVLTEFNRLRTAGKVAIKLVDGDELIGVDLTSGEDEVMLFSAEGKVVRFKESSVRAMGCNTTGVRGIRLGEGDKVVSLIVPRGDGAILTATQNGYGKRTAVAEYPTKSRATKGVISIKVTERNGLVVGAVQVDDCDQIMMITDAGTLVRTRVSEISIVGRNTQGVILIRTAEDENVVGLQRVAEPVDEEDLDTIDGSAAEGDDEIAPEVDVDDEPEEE
T2 sequence (Q9I7C2 whole entry): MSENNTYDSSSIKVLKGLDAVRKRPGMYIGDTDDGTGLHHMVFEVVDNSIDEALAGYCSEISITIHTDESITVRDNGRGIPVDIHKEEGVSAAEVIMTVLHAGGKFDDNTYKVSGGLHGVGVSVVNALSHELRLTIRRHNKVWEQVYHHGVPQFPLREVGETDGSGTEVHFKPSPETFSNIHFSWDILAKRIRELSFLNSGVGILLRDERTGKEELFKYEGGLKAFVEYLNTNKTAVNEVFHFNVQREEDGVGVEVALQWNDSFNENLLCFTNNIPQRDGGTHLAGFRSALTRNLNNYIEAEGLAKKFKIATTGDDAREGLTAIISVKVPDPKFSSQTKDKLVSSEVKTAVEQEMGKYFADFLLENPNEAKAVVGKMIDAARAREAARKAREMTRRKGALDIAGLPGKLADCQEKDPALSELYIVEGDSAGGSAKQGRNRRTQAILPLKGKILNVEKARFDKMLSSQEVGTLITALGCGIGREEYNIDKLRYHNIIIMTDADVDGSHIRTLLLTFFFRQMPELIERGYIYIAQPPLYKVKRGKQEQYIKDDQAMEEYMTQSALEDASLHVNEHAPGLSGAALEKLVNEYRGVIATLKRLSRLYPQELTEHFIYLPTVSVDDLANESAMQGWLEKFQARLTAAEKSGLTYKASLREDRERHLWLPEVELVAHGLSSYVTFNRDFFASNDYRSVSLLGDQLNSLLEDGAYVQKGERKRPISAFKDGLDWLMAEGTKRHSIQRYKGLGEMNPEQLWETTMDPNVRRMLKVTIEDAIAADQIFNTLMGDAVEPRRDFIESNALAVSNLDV
T2 sequence (P48372 whole entry): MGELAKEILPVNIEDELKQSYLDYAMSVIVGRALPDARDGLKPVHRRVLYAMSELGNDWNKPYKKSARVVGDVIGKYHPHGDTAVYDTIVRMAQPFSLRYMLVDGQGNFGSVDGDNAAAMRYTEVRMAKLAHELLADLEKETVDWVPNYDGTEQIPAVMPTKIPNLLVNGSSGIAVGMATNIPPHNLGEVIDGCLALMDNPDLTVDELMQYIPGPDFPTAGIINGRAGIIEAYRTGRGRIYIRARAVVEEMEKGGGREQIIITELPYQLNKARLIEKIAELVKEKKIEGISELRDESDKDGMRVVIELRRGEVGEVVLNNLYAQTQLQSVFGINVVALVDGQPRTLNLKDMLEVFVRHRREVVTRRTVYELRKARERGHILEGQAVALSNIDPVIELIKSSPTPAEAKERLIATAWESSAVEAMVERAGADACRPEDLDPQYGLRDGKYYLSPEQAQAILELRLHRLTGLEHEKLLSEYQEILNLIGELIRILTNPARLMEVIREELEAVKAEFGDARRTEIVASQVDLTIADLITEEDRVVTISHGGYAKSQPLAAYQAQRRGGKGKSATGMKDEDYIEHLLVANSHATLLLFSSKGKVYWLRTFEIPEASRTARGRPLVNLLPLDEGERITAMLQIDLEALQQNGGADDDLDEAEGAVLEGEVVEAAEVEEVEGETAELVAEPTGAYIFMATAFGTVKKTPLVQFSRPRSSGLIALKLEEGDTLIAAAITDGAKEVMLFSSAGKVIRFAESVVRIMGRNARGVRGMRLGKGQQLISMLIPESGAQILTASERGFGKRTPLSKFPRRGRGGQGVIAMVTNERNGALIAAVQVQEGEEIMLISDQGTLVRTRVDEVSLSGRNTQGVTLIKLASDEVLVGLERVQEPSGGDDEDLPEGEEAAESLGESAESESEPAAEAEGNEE

O=C(O)c1cn(-c2cccc3ccsc23)c2cc(N3CCNCC3)c(F)cc2c1=O [Compound 6e]
MIC ([1]; PAO1, +PAβN (25 μg/mL), Table 3, strain S): 2 µg/mL (≈ 4.72 µM)
MIC [1, 13]: 2 µg/mL (≈ 4.72 µM)
MIC ([1]; PAO1, –PAβN, Table 3, strain S): 32 µg/mL (≈ 75.6 µM)
MIC [1, 14]: 32 µg/mL (≈ 75.6 µM)
IC50 [2]: 6.38 µM
MIC ([3]; +PAβN (25 μg/mL), Table 3, strain R): > 32 µg/mL
MIC [3, 15]: > 32 µg/mL
MIC ([3]; –PAβN, Table 3, strain R): > 32 µg/mL
MIC [3, 16]: > 32 µg/mL
effect of PAβN on MIC [3, 17]: Neither ciprofloxacin nor compound 6e showed any difference in MIC
MIC ([4]; NCTC13437, +PAβN (25 μg/mL), Table 3, strain R): > 32 µg/mL
MIC [4, 18]: 32 µg/mL (≈ 75.6 µM)
MIC ([4]; NCTC13437, –PAβN, Table 3, strain R): > 32 µg/mL
MIC [4, 19]: > 32 µg/mL
MIC ([5]; NCTC12923, +PAβN (25 μg/mL), Table 3, strain S): 0.25 µg/mL (≈ 0.59 µM)
MIC [5, 20]: 1 µg/mL (≈ 2.36 µM)
MIC ([5]; NCTC12923, –PAβN, Table 3, strain S): 0.25 to 2 µg/mL (≈ 0.59 to 4.72 µM)
MIC [5, 21]: 4 µg/mL (≈ 9.45 µM)
effect of PAβN on MIC ([5]; PAβN, text names E. coli only): No effect
IC50 [6]: 15.8 µM
MIC ([7]; ATCC17978, +PAβN (25 μg/mL), Table 3, strain S): 4 µg/mL (≈ 9.45 µM)
MIC [7, 22]: 4 µg/mL (≈ 9.45 µM)
MIC ([7]; ATCC17978, –PAβN, Table 3, strain S): 4 µg/mL (≈ 9.45 µM)
MIC [7, 23]: 8 µg/mL (≈ 18.9 µM)
potentiation of MIC by PMBN [7]: 2 fold
effect of PAβN on MIC [7, 17]: Neither ciprofloxacin nor compound 6e showed any difference in MIC
MIC ([8]; NCTC13368, +PAβN (25 μg/mL), Table 3, strain R): 4 µg/mL (≈ 9.45 µM)
MIC [8, 24]: 8 µg/mL (≈ 18.9 µM)
MIC ([8]; NCTC13368, –PAβN, Table 3, strain R): > 32 µg/mL
MIC [8, 25]: 32 µg/mL (≈ 75.6 µM)
potentiation of MIC by PMBN [8]: 4–8 fold
effect of PAβN on MIC [8, 26]: significant potentiation
solubility in assay media ([9]; S. aureus DNA gyrase / topoisomerase IV assay media, at the high concentrations required): poorly soluble
antibacterial activity [10]: limited activity
MIC ([11]; M6, +PAβN (25 μg/mL), Table 3, strain S): 1 µg/mL (≈ 2.36 µM)
MIC [11, 27]: 2 µg/mL (≈ 4.72 µM)
MIC ([11]; M6, –PAβN, Table 3, strain S): 8 µg/mL (≈ 18.9 µM)
MIC [11, 28]: 8 µg/mL (≈ 18.9 µM)
potentiation of MIC by PMBN [11]: 2–4 fold
effect of PAβN on MIC [11, 26]: significant potentiation
MIC ([12]; LEC001, +PAβN (25 μg/mL), Table 3, strain R): > 32 µg/mL
MIC [12, 29]: > 32 µg/mL
MIC ([12]; LEC001, –PAβN, Table 3, strain R): > 32 µg/mL
MIC [12, 30]: > 32 µg/mL
effect of PAβN on MIC ([12]; PAβN, text names E. coli only): No effect

O=C(O)c1cn(Cc2cccc3ccsc23)c2cc(N3CCNCC3)c(F)cc2c1=O [Compound 6g]
potentiation of MIC by PMBN [1]: over 8 fold
MIC [1, 13]: 32 µg/mL (≈ 73.1 µM)
MIC [1, 14]: > 128 µg/mL
MIC [3, 15]: > 128 µg/mL
MIC [3, 16]: > 128 µg/mL
potentiation of MIC by PMBN [4]: over 8 fold
MIC [4, 18]: 16 µg/mL (≈ 36.6 µM)
MIC [4, 19]: > 128 µg/mL
MIC [5, 20]: 128 µg/mL (≈ 293 µM)
MIC [5, 21]: > 128 µg/mL
MIC [7, 22]: > 128 µg/mL
MIC [7, 23]: > 128 µg/mL
MIC [8, 24]: > 128 µg/mL
MIC [8, 25]: > 128 µg/mL
solubility profile [9]: poor solubility profiles
antibacterial activity [10]: almost complete loss of activity
MIC [11, 27]: > 128 µg/mL
MIC [11, 28]: > 128 µg/mL
MIC [12, 29]: > 32 µg/mL
MIC [12, 30]: > 32 µg/mL

CCn1cc(C(=O)O)c(=O)c2cc(F)c(N3CCNCC3)cc21 [Compound 6b, norfloxacin, reference compound]
potentiation of MIC by PMBN [1]: 4–16 fold
MIC [1, 13]: 0.5 µg/mL (≈ 1.57 µM)
MIC [1, 14]: 2 to 4 µg/mL (≈ 6.26 to 12.5 µM)
MIC [3, 15]: > 32 µg/mL
MIC [3, 16]: > 32 µg/mL
MIC [4, 18]: 32 µg/mL (≈ 100 µM)
MIC [4, 19]: > 32 µg/mL
MIC [5, 20]: 0.125 µg/mL (≈ 0.391 µM)
MIC [5, 21]: 0.125 µg/mL (≈ 0.391 µM)
MIC [7, 22]: 4 µg/mL (≈ 12.5 µM)
MIC [7, 23]: 8 µg/mL (≈ 25.1 µM)
potentiation of MIC by PMBN [7]: 1–2 fold
MIC [8, 24]: 2 µg/mL (≈ 6.26 µM)
MIC [8, 25]: 4 µg/mL (≈ 12.5 µM)
potentiation of MIC by PMBN [8]: 2 fold
MIC [11, 27]: 0.5 µg/mL (≈ 1.57 µM)
MIC [11, 28]: 0.25 to 0.5 µg/mL (≈ 0.783 to 1.57 µM)
potentiation of MIC by PMBN [11]: 1 fold
MIC [12, 29]: > 32 µg/mL
MIC [12, 30]: > 32 µg/mL

O=C(O)c1cn(Cc2cccc3ccoc23)c2cc(N3CCNCC3)c(F)cc2c1=O [Compound 6f]
potentiation of MIC by PMBN [1]: over 8 fold
MIC [1, 13]: 16 µg/mL (≈ 38 µM)
MIC [1, 14]: > 128 µg/mL
MIC [3, 15]: > 128 µg/mL
MIC [3, 16]: > 128 µg/mL
potentiation of MIC by PMBN [4]: over 8 fold
MIC [4, 18]: 32 µg/mL (≈ 75.9 µM)
MIC [4, 19]: > 128 µg/mL
MIC [5, 20]: 32 µg/mL (≈ 75.9 µM)
MIC [5, 21]: > 128 µg/mL
MIC [7, 22]: > 128 µg/mL
MIC [7, 23]: > 128 µg/mL
MIC [8, 24]: > 128 µg/mL
MIC [8, 25]: > 128 µg/mL
solubility profile [9]: poor solubility profiles
antibacterial activity [10]: almost complete loss of activity
MIC [11, 27]: > 128 µg/mL
MIC [11, 28]: > 128 µg/mL
MIC [12, 29]: > 32 µg/mL
MIC [12, 30]: > 32 µg/mL
